Where a name gives a salt, the structure may show the parent alone.
Assays:
[1] = system: cytochrome P450 (CPY) 3A4; conditions: cited from earlier work
[2] = cited from earlier work
[3] = cited from earlier work; remark: listed apart in the source
[4] = system: serotonin 5-HT2 receptors; conditions: in vivo; cited from earlier work
[5] = system: serotonin re-uptake; conditions: in vivo; cited from earlier work
[6] = system: monoamine oxidase; conditions: cited from earlier work
[7] = relative to tricyclic antidepressants; cited from earlier work
[8] = clinically effective doses of up to 450 mg three times a day; cited from earlier work
[9] = USP criteria; cited from earlier work
[10] = system: CYP2D6; conditions: cited from earlier work
[11] = nefazodone and metabolite pharmacokinetics in human volunteers: ER v. IR; conditions: plasma, po
[12] = system: rodents; conditions: in vivo; cited from earlier work
[13] = system: rats; conditions: mediated through 5-HT2C or 5HT2B receptors; cited from earlier work
[14] = system: humans; conditions: in vivo; cited from earlier work

## O=c1[nH]n(CCCN2CCN(c3cccc(Cl)c3)CC2)c(=O)n1CCOc1ccccc1 [Dione]
[1]
  metabolism by CYP3A4: responsible for the further metabolism

## CCc1nn(CCCN2CCN(c3cccc(Cl)c3)CC2)c(=O)n1CCOc1ccccc1 [Nefazodone, 2-[3-[4-(3-chlorophenyl)-1-piperazinyl]-propyl-]5-ethyl-2,4-dihydro-4-(2-phenoxy-ethyl)-3H-1,2,4-triazol-3-one hydrochloride]
[2]; in vivo
  first-pass metabolism: significant first-pass metabolism
[2]; plasma concentrations v. dose
  kinetics (dose proportionality): non-linear kinetics
[3]
  dissociation constant (pKa): 6.4
[4]
  effect on serotonin 5-HT2 receptors: blocks serotonin 5-HT2 receptors
[5]
  serotonin re-uptake inhibition: reversibly inhibits serotonin re-uptake
[6]
  monoamine oxidase inhibition: does not inhibit monoamine oxidase
[7]
  anticholinergic, antihistamine, alpha-adrenergic and sedative activity: decreased anticholinergic, antihistamine, alpha-adrenergic and sedative activity
[1]
  inhibition of CYP3A4: inhibits cytochrome P450 (CPY) 3A4
  metabolism by CYP3A4: metabolized by
[8]
  tolerability: well-tolerated
[9]
  solubility in water: sparingly soluble
[10]
  inhibition of CYP2D6: weak inhibitor of CYP2D6
[11]; 100 mg
  Tmax: 2 h
[11]; 200 mg
  Tmax: 5 h

## CC(O)c1nn(CCCN2CCN(c3cccc(Cl)c3)CC2)c(=O)n1CCOc1ccccc1 (centres unmarked) [hydroxy-nef, hydroxynefazodone]
[1]
  metabolism by CYP3A4: responsible for the further metabolism

## Clc1cccc(N2CCNCC2)c1 [mCPP, m-chlorophenylpiperazine]
[10]
  metabolism by CYP2D6: responsible for the metabolism of mCPP
[12]
  effects in rodents: anxiogenic-like properties, causes hypoactivity, hypophagia, oral dyskinesia, penile erection and hyperthermia
[13]
  hypoglycemic effect: dose-dependent hypoglycemic effect
[14]
  effects in humans: increase anxiety in humans (and can cause panic attacks), may precipitate migraine attacks in those susceptible to such attacks, can disrupt sleep, be hypophagic in humans also and may have psychotogenic effects

Reference: patent US6143325A, “Nefazodone dosage form” (priority 1999, dated 2000)
